Data reported in article PMC6405172, “In vitro activity and mode of action of phenolic compounds on Leishmania donovani” (PLoS Neglected Tropical Diseases, 2019).

Experiments:
[1] = Cytotoxicity of compounds on mammalian cells (MTT); assay type: cell-based; conditions: mouse, Raw 264.7 macrophage cells, Raw 264.7 cells, read-out: Macrophages CC50 (μM) ±SD
Procedure: Raw 264.7 cells were seeded into 96-well plates at (1 x 10^6 cells) in DMEM supplemented with 10% FBS, 100 μg/mL streptomycin, 100 u/mL penicillin-G, 2g/L NaHCO3 and incubated at 37°C for 24 hours in 5% CO2. The cells were treated with 0–50 μg/mL concentrations of the phenolic compounds for 48 hours at 37°C in 5% CO2. Deferoxamine and amphotericin B at 0–50 μg/mL concentrations were used as positive controls. Cell viability was estimated by measuring the mitochondria oxidative activity by MTT assay and absorbance was read at 570 nm using Thermo Scientific Varioskan LUX. Selectivity index (SI) was calculated as the ratio of the CC50 to IC50 values.

[2] = test system: L. donovani promastigotes; test: Morphology analysis (DAPI, microscopy); assay type: cell-based, Leishmania donovani; conditions: 24 hours; for parasites with rounded morphology, aggregated kinetoplast and nuclear DNA: 2x IC50
Procedure: The cell pellets were then washed twice and resuspended in 1x PBS. The cells were then allowed to settle on poly-L-lysine coated slides and then rinsed with 1x PBS. Tris-HCl (100 mM) pH 7.5 in 1x PBS was used to block the PFA for 10 minutes. DAPI stain (0.1μg/mL) was added followed by one wash in 1x PBS. Coverslips were mounted onto the slides using Vectashield mounting media and observed under the Olympus fluorescent microscope to detect any phenotypic changes in L. donovani promastigotes. The total number of parasites was determined by direct counting of parasites per field, using ImageJ Software. The frequency of parasites was visually determined by counting parasites that had any abnormalities in their structure compared to the untreated control.

[3] = test system: Leishmania iron transporter 1 (LIT1); test: RT-qPCR mRNA expression of LIT1; assay type: cell-based, Leishmania donovani; conditions: promastigotes, 24 hours; for LIT1 Relative quantity: Fig 7A
Procedure: Promastigotes (1 x 10^7 cells) were separately treated with rosmarinic acid, apigenin, amphotericin B and deferoxamine, harvested after 24 hours incubation at 25°C. The parasites were then pelleted by centrifugation at 239 × g for 10 min and the pellet was re-suspended in 1 mL TRIzol. Samples were incubated overnight at -80°C and total RNA was extracted as described by the manufacturer’s protocol using Quick-RNA MiniPrep Plus (Zymo Research, USA). Purity of total RNA was determined to be approximately 2.0 using a Nanodrop. The oligonucleotide primers for the amplification of the iron dependent enzymes—ribonucleotide reductase (RNR) (3’[…] and 5’CAACAACTTCTGCGCATCG), iron superoxide dismutase A (FeSOD) (3’[…] and 5’[…]) and Leishmania iron transporter 1 (LIT1) (3’[…] and 5’ […]) were designed using sequences of Leishmania reference genome from tritrypdb.org (http://tritrypdb.org/tritrypdb/) and Primer 3 software. The oligonucleotide primers used in amplifying the housekeeping gene Histone 2A were (3’ […] and 5’[…]). The RT-qPCR reaction was conducted as described by manufacturer’s protocol with final concentrations of oligonucleotide primers as 0.4 μM, 1x Luna Universal One-Step Reaction mix, 1x Luna WarmStart RT Enzyme Mix and template RNA ≤ 1 μg. All the RT-PCR products were standardized with respect to the endogenous control, Histone 2A. The levels of the mRNA transcripts were obtained using the QuantStudio 5 Real-Time PCR System (Applied Biosystems). The data represent three independent experiments done in triplicate and a fold change in gene expression of >2 was considered significant.

[4] = test system: L. donovani promastigotes; test: Promastigote mitochondria integrity (MitoTracker Red CMXROS); assay type: cell-based, Leishmania donovani; conditions: 24 hours; 2x IC50 (amphotericin B 1/2 IC50)
Procedure: After incubation, the promastigotes were harvested and resuspended in serum-free M199/1%BSA. MitoTracker Red CMXROS (a cationic fluorescent dye that labels the mitochondria within live cells) at 100 nM was added and incubated for 30 min. Parasites were washed once with serum-free M199/1% BSA, pelleted by centrifugation at 1500 rpm for 10 min, resuspended in 1x vPBS and 6% paraformaldehyde and incubated at 4°C for 1 hour. The promastigote pellets were washed twice and resuspended in 1xPBS. The parasites were then allowed to settle on poly-L-lysine coated slides and DAPI stain (0.1μg/mL) was added followed by one wash in 1x PBS. Coverslips were mounted onto the slides using Vectashield mounting media and observed under the Olympus fluorescent microscope to detect any abnormalities in the structure of the mitochondria. The total number of parasites was determined by direct counting of parasites per field, using ImageJ Software. Parasites with distorted mitochondria were visually determined by counting parasites that had any abnormalities in the structure of the mitochondria compared to the untreated control.

SMILES	CC50 at 48 h [1]	parasites showing irregular shape, severe distortion in the cell membrane, loss of kinetoplast DNA ([2]; half the IC50)	LIT1 mRNA expression versus untreated [3]	LIT1 Relative quantity [3]	promastigotes with mitotracker dye accumulating in the cytoplasm (distorted mitochondrion) [4]	parasites with rounded morphology, aggregated kinetoplast and nuclear DNA [2]
C[C@@H]1[C@H](O)[C@@H](C)/C=C/C=C/C=C/C=C/C=C/C=C/C=C/[C@H](O[C@@H]2O[C@H](C)[C@@H](O)[C@H](N)[C@@H]2O)C[C@@H]2O[C@](O)(C[C@@H](O)C[C@@H](O)[C@H](O)CC[C@@H](O)C[C@@H](O)CC(=O)O[C@H]1C)C[C@H](O)[C@H]2C(=O)O [Amphotericin B, reference compound]	15.75 ± 0.03 µM	90%	5 fold	4.7	99%	
O=c1cc(-c2ccc(O)cc2)oc2cc(O)cc(O)c12 [Apigenin, apigenin]	237.9 ± 0.03 µM		no observed change	0.8	75.8%	
CC(=O)N(O)CCCCCNC(=O)CCC(=O)N(O)CCCCCNC(=O)CCC(=O)N(O)CCCCCN [Deferoxamine, deferoxamine, reference compound]	26.88 ± 0.02 µM		125 fold	125	81%	90%
O=C(/C=C/c1ccc(O)c(O)c1)O[C@H](Cc1ccc(O)c(O)c1)C(=O)O [Rosmarinic acid, rosmarinic acid]	245.6 ± 0.3 µM		3 fold	3.0	70%	70%
